From the NIST ThermoML archive (doi:10.1016/j.fluid.2018.07.028)
± gives the expanded uncertainty stated by the source.

Test: activity coefficient (dimensionless); of the first substance listed, at infinite dilution; xn = mol fraction of the nth substance listed
Conditions: 101.33 kPa, Liquid, Chromatography, x1 = 0

Row | SMILES | activity coefficient (358.15 K) | activity coefficient (368.15 K) | activity coefficient (378.15 K) | activity coefficient (388.15 K) | activity coefficient (398.15 K) | activity coefficient (408.15 K)
1 | c1ccccc1 [benzene] + CCCC[P+](CCCC)(CCCC)CCCC.O=S(=O)([N-]S(=O)(=O)C(F)(F)F)C(F)(F)F | 0.836 ± 0.054 | 0.869 ± 0.056 | 0.901 ± 0.057 | 0.933 ± 0.059 | 0.963 ± 0.061 | 0.994 ± 0.062
2 | CC(C)CO [2-methyl-1-propanol] + CCCC[P+](CCCC)(CCCC)CCCC.O=S(=O)([N-]S(=O)(=O)C(F)(F)F)C(F)(F)F | 1.57 ± 0.1 | 1.52 ± 0.1 | 1.46 ± 0.1 | 1.41 ± 0.09 | 1.37 ± 0.09 | 1.33 ± 0.09
3 | CCc1ccccc1 [ethylbenzene] + CCCC[P+](CCCC)(CCCC)CCCC.O=S(=O)([N-]S(=O)(=O)C(F)(F)F)C(F)(F)F | 1.49 ± 0.1 | 1.54 ± 0.1 | 1.58 ± 0.1 | 1.63 ± 0.11 | 1.67 ± 0.11 | 1.71 ± 0.11
4 | CCC(C)(C)C [2,2-dimethylbutane] + CCCC[P+](CCCC)(CCCC)CCCC.O=S(=O)([N-]S(=O)(=O)C(F)(F)F)C(F)(F)F | 3.93 ± 0.27 | 3.98 ± 0.27 | 4.01 ± 0.27 | 4.05 ± 0.28 | 4.08 ± 0.28 | 4.12 ± 0.28
5 | C1CCCC1 [cyclopentane] + CCCC[P+](CCCC)(CCCC)CCCC.O=S(=O)([N-]S(=O)(=O)C(F)(F)F)C(F)(F)F | 2.33 ± 0.16 | 2.35 ± 0.16 | 2.37 ± 0.16 | 2.38 ± 0.16 | 2.4 ± 0.16 | 2.42 ± 0.16
6 | CCOCC [diethyl ether] + CCCC[P+](CCCC)(CCCC)CCCC.O=S(=O)([N-]S(=O)(=O)C(F)(F)F)C(F)(F)F | 1.65 ± 0.11 | 1.7 ± 0.11 | 1.76 ± 0.12 | 1.8 ± 0.12 | 1.86 ± 0.13 | 1.91 ± 0.13
7 | CC1CCCCC1 [methylcyclohexane] + CCCC[P+](CCCC)(CCCC)CCCC.O=S(=O)([N-]S(=O)(=O)C(F)(F)F)C(F)(F)F | 3.5 ± 0.24 | 3.49 ± 0.24 | 3.48 ± 0.24 | 3.48 ± 0.24 | 3.47 ± 0.24 | 3.46 ± 0.24
8 | CCCCCO [pentan-1-ol] + CCCC[P+](CCCC)(CCCC)CCCC.O=S(=O)([N-]S(=O)(=O)C(F)(F)F)C(F)(F)F | 1.81 ± 0.12 | 1.76 ± 0.12 | 1.71 ± 0.11 | 1.67 ± 0.11 | 1.63 ± 0.11 | 1.59 ± 0.11
9 | C1CCOC1 [tetrahydrofuran] + CCCC[P+](CCCC)(CCCC)CCCC.O=S(=O)([N-]S(=O)(=O)C(F)(F)F)C(F)(F)F | 0.622 ± 0.043 | 0.653 ± 0.045 | 0.682 ± 0.046 | 0.712 ± 0.047 | 0.742 ± 0.049 | 0.772 ± 0.05
10 | CO [methanol] + CCCC[P+](CCCC)(CCCC)CCCC.O=S(=O)([N-]S(=O)(=O)C(F)(F)F)C(F)(F)F | 1.28 ± 0.08 | 1.23 ± 0.08 | 1.18 ± 0.08 | 1.14 ± 0.07 | 1.1 ± 0.07 | 1.06 ± 0.07
11 | C=COC(C)=O [vinyl acetate] + CCCC[P+](CCCC)(CCCC)CCCC.O=S(=O)([N-]S(=O)(=O)C(F)(F)F)C(F)(F)F | 0.983 ± 0.062 | 1.01 ± 0.06 | 1.04 ± 0.07 | 1.07 ± 0.07 | 1.1 ± 0.07 | 1.13 ± 0.07
12 | CCCCC [pentane] + CCCC[P+](CCCC)(CCCC)CCCC.O=S(=O)([N-]S(=O)(=O)C(F)(F)F)C(F)(F)F | 3.61 ± 0.25 | 3.62 ± 0.25 | 3.65 ± 0.25 | 3.66 ± 0.25 | 3.68 ± 0.25 | 3.7 ± 0.25
13 | O [water] + CCCC[P+](CCCC)(CCCC)CCCC.O=S(=O)([N-]S(=O)(=O)C(F)(F)F)C(F)(F)F | 4.2 ± 0.29 | 3.85 ± 0.26 | 3.53 ± 0.24 | 3.26 ± 0.22 | 3.02 ± 0.21 | 2.81 ± 0.19
14 | CC(C)c1ccccc1 [isopropylbenzene] + CCCC[P+](CCCC)(CCCC)CCCC.O=S(=O)([N-]S(=O)(=O)C(F)(F)F)C(F)(F)F | 1.92 ± 0.13 | 1.97 ± 0.13 | 2.02 ± 0.14 | 2.07 ± 0.14 | 2.12 ± 0.14 | 2.17 ± 0.15
15 | C=C(C)c1ccccc1 [(1-methylethenyl)benzene] + CCCC[P+](CCCC)(CCCC)CCCC.O=S(=O)([N-]S(=O)(=O)C(F)(F)F)C(F)(F)F | 1.4 ± 0.09 | 1.46 ± 0.1 | 1.52 ± 0.1 | 1.58 ± 0.1 | 1.64 ± 0.11 | 1.7 ± 0.11
16 | CCCc1ccccc1 [propylbenzene] + CCCC[P+](CCCC)(CCCC)CCCC.O=S(=O)([N-]S(=O)(=O)C(F)(F)F)C(F)(F)F | 1.88 ± 0.13 | 1.93 ± 0.13 | 1.98 ± 0.13 | 2.03 ± 0.14 | 2.07 ± 0.14 | 2.12 ± 0.14
17 | CCCCCCCCCC [decane] + CCCC[P+](CCCC)(CCCC)CCCC.O=S(=O)([N-]S(=O)(=O)C(F)(F)F)C(F)(F)F | 10.4 ± 0.7 | 10.1 ± 0.7 | 9.88 ± 0.67 | 9.67 ± 0.66 | 9.47 ± 0.65 | 9.29 ± 0.63
18 | C=CCCCCCC [oct-1-ene] + CCCC[P+](CCCC)(CCCC)CCCC.O=S(=O)([N-]S(=O)(=O)C(F)(F)F)C(F)(F)F | 4.9 ± 0.33 | 4.92 ± 0.34 | 4.94 ± 0.34 | 4.96 ± 0.34 | 4.98 ± 0.34 | 5.01 ± 0.34
19 | C1=CCCCC1 [cyclohexene] + CCCC[P+](CCCC)(CCCC)CCCC.O=S(=O)([N-]S(=O)(=O)C(F)(F)F)C(F)(F)F | 2.24 ± 0.15 | 2.27 ± 0.15 | 2.29 ± 0.16 | 2.32 ± 0.16 | 2.34 ± 0.16 | 2.37 ± 0.16
20 | C1CCCCCCC1 [cyclooctane] + CCCC[P+](CCCC)(CCCC)CCCC.O=S(=O)([N-]S(=O)(=O)C(F)(F)F)C(F)(F)F | 4.08 ± 0.28 | 4.04 ± 0.28 | 4 ± 0.27 | 3.97 ± 0.27 | 3.94 ± 0.27 | 3.91 ± 0.27
21 | CC(C)O [propan-2-ol] + CCCC[P+](CCCC)(CCCC)CCCC.O=S(=O)([N-]S(=O)(=O)C(F)(F)F)C(F)(F)F | 1.47 ± 0.1 | 1.42 ± 0.09 | 1.37 ± 0.09 | 1.33 ± 0.09 | 1.29 ± 0.08 | 1.26 ± 0.08
22 | C=CCCCCCCCC [1-decene] + CCCC[P+](CCCC)(CCCC)CCCC.O=S(=O)([N-]S(=O)(=O)C(F)(F)F)C(F)(F)F | 7.54 ± 0.51 | 7.48 ± 0.51 | 7.41 ± 0.51 | 7.36 ± 0.5 | 7.3 ± 0.5 | 7.25 ± 0.49
23 | CCCCCC [hexane] + CCCC[P+](CCCC)(CCCC)CCCC.O=S(=O)([N-]S(=O)(=O)C(F)(F)F)C(F)(F)F | 4.39 ± 0.3 | 4.41 ± 0.3 | 4.44 ± 0.3 | 4.46 ± 0.3 | 4.49 ± 0.31 | 4.51 ± 0.31
24 | C=CCCCC [hex-1-ene] + CCCC[P+](CCCC)(CCCC)CCCC.O=S(=O)([N-]S(=O)(=O)C(F)(F)F)C(F)(F)F | 3.15 ± 0.21 | 3.2 ± 0.22 | 3.24 ± 0.22 | 3.28 ± 0.22 | 3.32 ± 0.23 | 3.35 ± 0.23
25 | c1ccsc1 [thiophene] + CCCC[P+](CCCC)(CCCC)CCCC.O=S(=O)([N-]S(=O)(=O)C(F)(F)F)C(F)(F)F | 0.782 ± 0.051 | 0.812 ± 0.053 | 0.842 ± 0.054 | 0.872 ± 0.056 | 0.9 ± 0.057 | 0.929 ± 0.059
26 | CCCCCCC [heptane] + CCCC[P+](CCCC)(CCCC)CCCC.O=S(=O)([N-]S(=O)(=O)C(F)(F)F)C(F)(F)F | 5.4 ± 0.37 | 5.38 ± 0.37 | 5.37 ± 0.37 | 5.35 ± 0.36 | 5.34 ± 0.36 | 5.33 ± 0.36
27 | COC(C)(C)C [2-methoxy-2-methylpropane] + CCCC[P+](CCCC)(CCCC)CCCC.O=S(=O)([N-]S(=O)(=O)C(F)(F)F)C(F)(F)F | 1.66 ± 0.11 | 1.73 ± 0.12 | 1.8 ± 0.12 | 1.87 ± 0.13 | 1.94 ± 0.13 | 2.01 ± 0.14
28 | CCC(=O)CC [pentan-3-one] + CCCC[P+](CCCC)(CCCC)CCCC.O=S(=O)([N-]S(=O)(=O)C(F)(F)F)C(F)(F)F | 0.629 ± 0.043 | 0.66 ± 0.045 | 0.69 ± 0.05 | 0.721 ± 0.048 | 0.75 ± 0.049 | 0.781 ± 0.051
29 | C#CCCCCCC [1-octyne] + CCCC[P+](CCCC)(CCCC)CCCC.O=S(=O)([N-]S(=O)(=O)C(F)(F)F)C(F)(F)F | 2.79 ± 0.19 | 2.87 ± 0.2 | 2.93 ± 0.2 | 3 ± 0.2 | 3.07 ± 0.21 | 3.13 ± 0.21
30 | CC(C)CC(C)(C)C [2,2,4-trimethylpentane] + CCCC[P+](CCCC)(CCCC)CCCC.O=S(=O)([N-]S(=O)(=O)C(F)(F)F)C(F)(F)F | 5.43 ± 0.37 | 5.42 ± 0.37 | 5.41 ± 0.37 | 5.4 ± 0.37 | 5.39 ± 0.37 | 5.39 ± 0.37
